# How the values were obtained:
# B. cereus 204 = experiment: Chicken soup trial at 8° C.; assay type: cell-based, Bacillus cereus; conditions: chicken soup at 8° C.
# Text: A local supermarket brand of cream of chicken soup was used as a model food system. 600 g packs were purchased from the local supermarket. This was a ‘fresh home-made type’ of soup that was stored in the chill cabinet, with a short shelf life. It was chosen because it is a rich, nutritious food system containing a range of food components including meat, dairy and vegetable.
# Ingredients were labelled as: chicken stock (water, duck fat, chicken, salt, flavourings, yeast extracts, pork gelatine, glucose syrup, vegetable concentrate, milk protein, sugar, malto-dextrin, vegetable oil, citric acid, lactose, chicken fat), ilk, chicken (9%), cream (8%), onion, potato, vegetable oil, modified maize starch, wheat flour, lemon juice, salt, white pepper. pH 5.912. Protein: 3.3%; carbohydrate: 4.7%; fat: 7.2%; fibre: 0.2%; sodium: 0.1%
# For the test the soup was mixed 2:1 in water (to facilitate sampling and mixing) and sterilised by autoclaving at 121° C. for 15 minutes. For each experiment the pH of the soup was recorded; this was between pH 5.79-5.88.
# For TCS010412/8 (which was incubated at 8° C.), APP batch number APP20010213 (concentration 169 mg APP/ml) was used to prepare tests containing 0, 2000 or 4000 ppm APP. 5 g of filter-sterilised APP stock solution was added to 94 g of soup, mixed and then 1 ml of a diluted inoculum suspension (cells or spores as appropriate) was added to give a test inoculum level of 10^3 cfu/g. The soup mixture was shaken vigorously to ensure homogeneous distribution of the APP and micro-organisms. The tests were tested by viable count and then incubated at 8° C. and tested on a twice-weekly basis.
# For TCS010521/8 (incubated at 8° C.), samples were prepared in 27.8 g quantities. 1.5 g of an APP stock solution was added, and the tests inoculated with 0.3 ml of a suitably diluted cell or spore suspension to give a final inoculum of ca. 10^3 cfu/g. APP was tested at 0, 500 and 1000 ppm, and batch number APP20010213 (at 169 mg/ml) was used. The tests were sampled by viable count and then incubated at 8° C. and tested on a twice-weekly basis.
# Salm Typhimurium S29 = experiment: Test in cooked minced chicken slurry; assay type: cell-based, Salmonella Typhimurium; conditions: for Total inhibition for: minced chicken slurry at 8° C., pH 6.42, TCC010704
# Protocol: 1 kg of minced chicken (mainly lean meat) was purchased from the local butcher. This was mixed with 1 litre of BHI, mixed and dispensed as 100 g samples prior to autoclaving. When still warm, the meat was re-mixed thoroughly. When cooked, the meat was inoculated with 1 ml of 10^5 spores or cells (from an overnight broth), and re-mixed. The samples were then divided into 3×25 g portions, to which 0.5 ml of filter-sterilised APP20010215 was added (as 5% or 10% stock solutions) or water. An initial viable count was taken, and the samples then incubated at 8° C. and tested twice weekly. The pH of the chicken slurry was 6.42.
# [1] = tested on: S cerevisiae var. paradoxus H103; experiment: Bioscreen growth inhibition test; assay type: cell-based, Saccharomyces cerevisiae var. paradoxus; conditions: APP 213, BS010420, 72 h/25° C.
# Protocol: (§1) For broth cultures and Bioscreen testing most bacteria were grown in Brain Heart Infusion (BHI, Oxoid, pH 7.4). Lactobacillus sake A10 was grown in de Man, Rogosa, Sharpe medium ([…], Oxoid). Yeasts were grown in Sabouraud Liquid medium (SLM, Oxoid). Most bacteria were cultured at 30° C. Lactic acid bacteria were grown on solid medium in enriched CO2 atmosphere. Clostridium species were grown in Reinforced Clostridial Medium (RCM) at 37° C. anaerobically. Brochothrix thermosphacta fungi and yeasts were grown at 25° C. Fungi were cultured on Malt Extract Agar (MEA, Oxoid).
# (§2) An automated Microbiology Reader Bioscreen C was used to measure growth curves of the strains in the presence and absence of APP. The Bioscreen C measures the development of turbidity (i.e. growth) kinetically by vertical photometry in 200 wells of a honeycomb microtitre plate, simultaneously. The system consists of a Bioscreen C analyser, which is an incubator and measurement unit, integrated with a PC, software (BioLink v 5.30), printer and a ‘Honeycomb 2’ cuvette multiwell plate. Growth curve data can be analysed within the BioLink software or exported to programs such as Excel.
# (§3) Broth culture media were dispensed in 270 μl volumes into the wells as directed. […] (depending on the micro-organism under investigation) with readings taken every 20 minutes after the trays were shaken. […]
# [2] = tested on: S. carisbergensis CRA6413; experiment: Bioscreen growth inhibition test; assay type: cell-based, Saccharomyces carlsbergensis; conditions: APP 213, BS010420, 72 h/25° C.
# Protocol: as §1, §2, §3
# B. cereus = experiment: Test in milk; assay type: cell-based, Bacillus cereus; conditions: TMGB010605; for Control for: milk at 20° C.
# Protocol: 8.9 ml samples of UHT milk containing 0.5% glucose and the indicator bromocresol purple (0.01%) were prepared and sterilised by autoclaving. The pH before APP addition was pH 6.65. Appropriate stock solutions of APP batch number APP20010215 (at 138 mg/ml) were prepared and filter sterilised. 1 ml of each was added to the milk to prepare tests containing 0, 1000 and 2000 ppm APP. Tests were then inoculated with 100 μl of diluted overnight broth cultures or spore suspensions to give a final inoculum level of ca. 10^3 cfu/ml. These and uninoculated tests were incubated at 20 and 8° C. and examined daily for visible changes compared to uninoculated control.
# Listeria innocua = experiment: Preliminary growth inhibition test; assay type: cell-based; conditions: 37° C., 20 hours
# Text: (§4) Antimicrobial activity was investigated using Salmonella Typhimurium and Listeria innocua.
# [3] = tested on: Salmonella Typhimurium DSMZ 554; experiment: Preliminary growth inhibition test; assay type: cell-based; conditions: 37° C., 24 hour
# Text: as §4
structure (smiles),measurement,setting,value
"O=C1CC(CO)OC=C1O (stereo not shown) [APP, Ascopyrone P]",Counts / spore kill,"B. cereus 204; 500 and 1000 ppm, TCSM010521, APP215","Counts remain at approx initial level, i.e. no spore kill."
same,Total inhibition for,"B. cereus 204; 500 ppm, TCSM010521, APP215",Total inhibition by 500 and 1000 ppm for >27 days.
same,Total inhibition for,"B. cereus 204; 1000 ppm, TCSM010521, APP215",Total inhibition by 500 and 1000 ppm for >27 days.
same,Counts / spore kill,"B. cereus 204; 2000 and 4000 ppm, TCS010412, APP20010213","Counts remain at initial level, i.e. no spore kill."
same,Total inhibition for,"B. cereus 204; 2000 ppm, TCS010412, APP20010213",Total inhibition by 2000 and 4000 ppm for >60 days.
same,Total inhibition for,"B. cereus 204; 4000 ppm, TCS010412, APP20010213",Total inhibition by 2000 and 4000 ppm for >60 days.
same,Total inhibition for,Salm Typhimurium S29; 1000 ppm,Total inhibition by 1000 ppm for 25 d
same,Total inhibition for,Salm Typhimurium S29; 2000 ppm,Total inhibition by 2000 ppm for >40 d
same,Total inhibition (effect on growth of target organism by 2000 ppm APP),Salm Typhimurium S29; Cooked minced chicken slurry at 8° C. pH 6.42,S. Typhimurium
same,APP level causing significant inhibition,[1],2000
same,APP level causing total inhibition,[1],>4000
same,APP level causing significant inhibition,[2],Enhanced growth
same,APP level causing total inhibition,[2],>4000
same,Control for,B. cereus; 1000 ppm,4 days
same,Control of growth,"B. cereus; 2000 ppm, milk at 8° C.",No control observed
same,Control for,B. cereus; 2000 ppm,6 days
same,Inhibition of bacterial growth,"Listeria innocua; 500 μg/ml APP, 10e3 cfu/ml",slight inhibition
same,Inhibition of bacterial growth,"Listeria innocua; 500 μg/ml APP, 10e5 cfu/ml",almost no inhibition
same,Inhibition of bacterial growth,"Listeria innocua; 1000 μg/ml APP, 10e3 cfu/ml",intermediate inhibition
same,Inhibition of bacterial growth,"Listeria innocua; 1000 μg/ml APP, 10e5 cfu/ml",slight inhibition
same,Inhibition of bacterial growth,"Listeria innocua; 2000 μg/ml APP, 10e3 cfu/ml",almost complete inhibition
same,Inhibition of bacterial growth,"Listeria innocua; 2000 μg/ml APP, 10e5 cfu/ml",intermediate inhibition
same,Inhibitory effect,Listeria innocua; 10e3 or 10e5 cfu/ml,satisfactory inhibitory effect
same,Inhibition of bacterial growth,[3]; 500 μg/ml APP,Intermediate inhibition
same,Inhibition of bacterial growth,[3]; 1000 μg/ml APP,strong inhibition
same,Inhibition of bacterial growth,"[3]; 2000 μg/ml APP, 10e3 and 10e5 cfu/ml",complete inhibition
same,Inhibition of bacterial growth,"[3]; 4000 μg/ml APP, 10e3 and 10e5 cfu/ml",complete inhibition
same,Inhibitory effect,[3]; 10e3 or 10e5 cfu/ml,satisfactory inhibitory effect

# From patent publication US20030203963A1, “Antimicrobial agent” (priority 2001, published 2003)
